# Test results taken from PMC8592510 (CPT: Pharmacometrics & Systems Pharmacology, 2021).
# Assays:
# [1] = Bayesian feedback population PK analyses of phase III data; format: in vivo; conditions: human, plasma, oral
# [2] = cited from earlier work
# [3] = Logistic regression exposure-safety analyses; conditions: alectinib 300 or 600 mg b.i.d.
# [4] = cited from earlier work; remark: listed apart in the source
# [5] = cited from earlier work; remark: listed apart in the source
# [6] = format: in vivo, human; conditions: covariate analysis, allometric scaling principles
# CYP3A = conditions: cited from earlier work
SMILES,half-life [1] [min],"Safety profile compared with crizotinib ([2]; J-ALEX, ALEX and ALESIA)",Effect of Caverage on severity of the first event for SAEs or Grade ≥3 AEs [3],"Relationship between Caverage and first occurrence of Grade ≥3 AEs ([3]; J-ALEX, ALEX, ALESIA)","Relationship between combined alectinib and M4 molar concentration (Caverage) and first occurrence of SAEs ([3]; J-ALEX, ALEX, ALESIA)",Blood-brain barrier penetration [4],Lipophilicity [5],Body weight effect on clearance and volume [6],Enzyme involved in metabolism (CYP3A),First-pass metabolism by cytochrome P450 (CYP) 3A (CYP3A),"Frequency of Grade ≥3 AEs and SAEs, crizotinib versus alectinib ([2]; ALEX study)"
CCc1cc2c(cc1N1CCC(N3CCOCC3)CC1)C(C)(C)c1[nH]c3cc(C#N)ccc3c1C2=O [alectinib],2040,favorable safety profile compared with crizotinib,no apparent effect,no significant relationship,no significant relationship,can penetrate the blood–brain barrier,lipophilic,significant body weight effect,CYP3A is the main enzyme,limited,–
C[C@@H](Oc1cc(-c2cnn(C3CCNCC3)c2)cnc1N)c1c(Cl)ccc(F)c1Cl [crizotinib],–,–,–,–,–,–,–,–,–,–,more frequent
